# Reference: ChEMBL document CHEMBL1201862, “PubChem BioAssay data set” (2004)
# Active and inactive are the calls of the source.
# Assays:
# [1] = luciferase reporter signal suppression in cells – H4 neuroglioma cells, luminescence, dose response (AID 1990); assay type: functional, cell-based
# [2] = Luminescence Cell-Based Dose Response HTS to Identify Inhibitors of 5'UTR Stem-Loop Driven Prion Protein mRNA Translation in H4 Neuroglioblastoma Cells. [Related pubchem assays: 1827 (Project Summary), 1813 (Primary HTS)]; assay type: functional
# [3] = alpha-synuclein stem-loop luciferase translation blockers – H4 neuroglioma cells, luminescence, confirmation (AID 1988); assay type: functional, cell-based
# [4] = target: G-protein coupled receptor 55 (Homo sapiens, UniProt Q9Y2T6); assay: inhibition of LPI-stimulated GPR55 beta-arrestin translocation – imaging, U2OS, beta-arrestin-GFP, LPI agonist, primary screen (AID 2013); assay type: functional;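 also: antagonist potency measured as reduced agonist-driven arrestin aggregation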
# Chain of G-protein coupled receptor 55 (Q9Y2T6 whole entry): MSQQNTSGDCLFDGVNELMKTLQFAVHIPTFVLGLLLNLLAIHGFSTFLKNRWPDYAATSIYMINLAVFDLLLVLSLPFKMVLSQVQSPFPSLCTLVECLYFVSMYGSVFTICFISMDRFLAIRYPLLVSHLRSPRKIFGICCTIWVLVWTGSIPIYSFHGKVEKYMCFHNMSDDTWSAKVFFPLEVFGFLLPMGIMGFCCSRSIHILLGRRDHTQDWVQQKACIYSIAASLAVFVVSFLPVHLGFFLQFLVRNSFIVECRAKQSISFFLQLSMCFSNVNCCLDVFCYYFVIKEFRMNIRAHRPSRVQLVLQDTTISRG
# [5] = viability of PTEN-deleted HCT116 cells – cell-based, HCT116 PTEN knockout, dose response (AID 1047); assay type: functional;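 also: HCT116 colon tumor cells with PTEN knocked out; cells exposed to compound for 60 hours before readout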
# [6] = viability of HCT116 lacking mutant beta-catenin – cell-based, human colon tumor, dose response (AID 1045); assay type: functional;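 also: HCT116 colon tumor cells with beta catenin knocked out; cells exposed to compound for 60 hours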
# [7] = tested on: Vero; assay: Vero 76 cell viability after compound exposure – Vero 76 cells, synthesized analogs, cytotoxicity control for West Nile virus antiviral project, SAR follow-up (AID 2414); assay type: functional; conditions: Chlorocebus sabaeus
# [8] = tested on: Vero; assay: Vero cell viability after compound exposure – synthesized analogs, set II, cytotoxicity control for West Nile virus antiviral project, SAR follow-up (AID 2402); assay type: functional; conditions: Chlorocebus sabaeus
# [9] = tested on: Vero; assay: host cell viability loss, Vero E6 – synthesized analogs, cytotoxicity control for West Nile virus antiviral project, SAR follow-up (AID 2244); assay type: functional; conditions: Chlorocebus sabaeus
# [10] = tested on: Vero; assay: antiviral protection of cells from WNV – synthesized analogs, SAR follow-up (AID 2238); assay type: functional, cell-based; conditions: Chlorocebus sabaeus
# [11] = tested on: Vero; assay: antiviral activity against WNV, CPE read-out – cell-based (AID 2419); assay type: functional; conditions: Chlorocebus sabaeus
# [12] = tested on: Vero; assay: inhibition of WNV-induced cytopathic effect – cell-based, CPE readout (AID 1621); assay type: functional; conditions: Chlorocebus sabaeus
# [13] = target: DNA dC->dU-editing enzyme APOBEC-3A (Homo sapiens, UniProt P31941); assay: A3A deaminase inhibition for selectivity – biochemical, dose response (AID 504722); assay type: functional
# Chain of DNA dC->dU-editing enzyme APOBEC-3A (P31941 whole entry): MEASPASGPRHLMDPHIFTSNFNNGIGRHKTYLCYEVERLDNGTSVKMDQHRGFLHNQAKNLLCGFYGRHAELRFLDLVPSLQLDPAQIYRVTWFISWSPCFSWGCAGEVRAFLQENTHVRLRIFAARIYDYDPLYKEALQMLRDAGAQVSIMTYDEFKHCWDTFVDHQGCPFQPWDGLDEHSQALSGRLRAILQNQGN
# [14] = target: T1, Hexokinase (Trypanosoma brucei, UniProt Q38C41); assay: Confirmation assay for inhibitors of Trypanosoma brucei hexokinase 1-Analogue-first series. [Related pubchem assays (depositor defined):AID1430, AID1632, AID2516, AID2560, AID2579, AID2600, AID449725, AID492951]; assay type: functional
# T1 sequence (Q38C41 whole entry): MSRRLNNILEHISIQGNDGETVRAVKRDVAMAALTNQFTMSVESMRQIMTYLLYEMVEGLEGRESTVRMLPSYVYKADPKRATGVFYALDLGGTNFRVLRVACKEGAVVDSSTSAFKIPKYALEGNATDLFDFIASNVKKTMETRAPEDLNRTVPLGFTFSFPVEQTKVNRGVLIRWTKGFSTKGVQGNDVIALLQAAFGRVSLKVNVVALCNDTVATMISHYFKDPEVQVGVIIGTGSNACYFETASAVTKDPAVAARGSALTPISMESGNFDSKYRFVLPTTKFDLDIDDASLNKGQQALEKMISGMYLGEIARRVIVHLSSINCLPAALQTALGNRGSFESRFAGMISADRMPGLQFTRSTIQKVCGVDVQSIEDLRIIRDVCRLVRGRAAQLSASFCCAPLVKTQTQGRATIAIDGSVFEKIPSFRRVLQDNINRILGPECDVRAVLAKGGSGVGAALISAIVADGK
# [15] = target: T2, Phosphomannomutase 2 (Homo sapiens, UniProt O15305); assay: Counter screen SAR assay for PMM2 inhibitors via a fluorescence intensity assay. [Related pubchem assays (depositor defined):AID1545, AID1574]
# T2 sequence (O15305 whole entry): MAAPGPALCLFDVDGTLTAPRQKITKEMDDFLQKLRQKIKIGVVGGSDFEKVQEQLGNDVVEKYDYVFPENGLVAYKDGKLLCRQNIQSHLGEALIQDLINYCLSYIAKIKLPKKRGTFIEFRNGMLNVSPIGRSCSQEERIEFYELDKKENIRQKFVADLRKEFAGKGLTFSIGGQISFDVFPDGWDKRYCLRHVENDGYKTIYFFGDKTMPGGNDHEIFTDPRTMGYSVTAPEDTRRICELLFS
# [16] = target: Phosphoethanolamine/phosphocholine phosphatase (Homo sapiens, UniProt Q8TCT1); assay: SAR assay for compounds that inhibit PHOSPHO1. [Related pubchem assays (depositor defined):AID1545, AID1565, AID1574]
# Chain of Phosphoethanolamine/phosphocholine phosphatase (Q8TCT1 whole entry): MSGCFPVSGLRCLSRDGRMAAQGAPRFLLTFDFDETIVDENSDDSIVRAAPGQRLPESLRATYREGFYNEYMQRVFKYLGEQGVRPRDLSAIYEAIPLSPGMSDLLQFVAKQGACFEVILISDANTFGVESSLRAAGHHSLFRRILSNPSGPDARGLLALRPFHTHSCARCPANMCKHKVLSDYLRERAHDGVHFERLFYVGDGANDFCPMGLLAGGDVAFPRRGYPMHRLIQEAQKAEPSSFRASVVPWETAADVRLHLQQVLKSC
# [17] = target: DNA dC->dU-editing enzyme APOBEC-3G (Homo sapiens, UniProt Q9HC16); assay: Dose Response confirmation of small molecule APOBEC3G DNA Deaminase Inhibitors via a fluorescence-based single-stranded DNA deaminase assay. [Related pubchem assays (depositor defined):AID493012, AID493028]; assay type: functional
# Chain of DNA dC->dU-editing enzyme APOBEC-3G (Q9HC16 whole entry): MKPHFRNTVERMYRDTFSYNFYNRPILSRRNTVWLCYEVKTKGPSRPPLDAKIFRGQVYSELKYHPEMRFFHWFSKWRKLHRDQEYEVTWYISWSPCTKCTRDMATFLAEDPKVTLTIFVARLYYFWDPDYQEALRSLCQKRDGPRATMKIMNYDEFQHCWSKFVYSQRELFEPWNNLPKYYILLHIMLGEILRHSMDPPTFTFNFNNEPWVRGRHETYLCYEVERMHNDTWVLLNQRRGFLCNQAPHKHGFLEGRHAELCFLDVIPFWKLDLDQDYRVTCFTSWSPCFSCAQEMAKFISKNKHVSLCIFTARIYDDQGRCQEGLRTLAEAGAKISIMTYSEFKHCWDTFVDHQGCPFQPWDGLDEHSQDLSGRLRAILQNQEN
# [18] = target: T3, Alkaline phosphatase, tissue-nonspecific isozyme (Homo sapiens, UniProt P05186); assay: potency against alkaline phosphatase TNAP – biochemical, luminescent, dose response, SAR follow-up (AID 1056)
# T3 sequence (P05186 whole entry): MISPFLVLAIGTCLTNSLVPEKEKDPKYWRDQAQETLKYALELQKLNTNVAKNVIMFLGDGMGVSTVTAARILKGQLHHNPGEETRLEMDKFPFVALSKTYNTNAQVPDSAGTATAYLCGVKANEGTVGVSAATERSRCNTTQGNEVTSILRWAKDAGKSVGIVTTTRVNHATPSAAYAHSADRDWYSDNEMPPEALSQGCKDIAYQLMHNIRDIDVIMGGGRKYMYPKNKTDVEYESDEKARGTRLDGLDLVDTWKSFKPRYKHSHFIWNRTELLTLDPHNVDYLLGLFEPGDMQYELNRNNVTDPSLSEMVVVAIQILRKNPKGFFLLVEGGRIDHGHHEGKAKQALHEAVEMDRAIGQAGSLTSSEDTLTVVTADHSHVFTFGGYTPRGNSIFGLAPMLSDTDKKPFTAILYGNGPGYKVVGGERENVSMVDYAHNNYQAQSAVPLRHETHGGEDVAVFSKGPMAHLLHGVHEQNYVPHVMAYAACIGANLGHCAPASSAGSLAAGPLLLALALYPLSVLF
# [19] = tested on: CHO; assay: CHO cell viability loss, potency – luminescence, cytotoxicity control for TLR9-MyD88 binding inhibitor project, dose response (AID 588339); assay type: functional, cell-based, hamster; conditions: Cricetulus griseus;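 also: CHO cells stably coexpressing TLR9 and MyD88 fusions from primary screen; compound exposure lasted 48 hours before viability readout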
# [20] = target: T4, Beta Lactamase (Pseudomonas aeruginosa, UniProt Q932Y6); assay: BLA reporter interference, concentration series – BLA reporter cells, FRET fluorescence, artefact control for TLR9-MyD88 binding inhibitor project, dose response (AID 588341); assay type: cell-based;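 also: cell based assay in CHO-K1 cells stably expressing beta-lactamase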
# T4 sequence (Q932Y6 whole entry): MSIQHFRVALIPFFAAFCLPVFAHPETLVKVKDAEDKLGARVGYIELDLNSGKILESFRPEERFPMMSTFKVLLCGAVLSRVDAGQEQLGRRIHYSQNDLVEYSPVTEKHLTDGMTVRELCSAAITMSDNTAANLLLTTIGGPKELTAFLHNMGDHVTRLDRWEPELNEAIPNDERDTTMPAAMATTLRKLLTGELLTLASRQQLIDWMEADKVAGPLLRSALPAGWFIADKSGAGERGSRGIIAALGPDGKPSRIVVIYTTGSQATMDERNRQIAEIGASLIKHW
# [21] = target: Mitochondrial peptide methionine sulfoxide reductase (Bos taurus, UniProt P54149); assay: Absorbance-based biochemical high throughput dose response assay for activators of Methionine sulfoxide reductase A (MsrA).; assay type: functional
# Chain of Mitochondrial peptide methionine sulfoxide reductase (P54149 whole entry, the tested form may be a part): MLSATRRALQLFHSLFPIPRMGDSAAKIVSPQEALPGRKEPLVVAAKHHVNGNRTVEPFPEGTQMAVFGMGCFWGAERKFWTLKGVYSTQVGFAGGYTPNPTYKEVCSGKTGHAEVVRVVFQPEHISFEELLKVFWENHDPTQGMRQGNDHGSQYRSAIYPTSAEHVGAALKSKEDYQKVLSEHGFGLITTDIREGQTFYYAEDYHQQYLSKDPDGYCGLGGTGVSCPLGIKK
# [22] = Fluorescence-based cell-based high throughput dose response assay for inhibitors of the interaction of nucleotide-binding oligomerization domain containing 2 (NOD2) and the receptor-interacting serine-threonine kinase 2 (RIPK2).; assay type: functional; conditions: Homo sapiens
# [23] = target: T4, Beta Lactamase; assay: BLA reporter interference, concentration series – BLA reporter cells, FRET fluorescence, artefact control for NOD2-RIPK2 interaction inhibitor project, dose response (AID 651552); assay type: functional, cell-based
# [24] = viability loss in HeLa cells – cytotoxicity control for MgcRacGAP inhibitor project, dose response (AID 624300); assay type: functional
# [25] = target: T5, Rac GTPase-activating protein 1 (Homo sapiens, UniProt Q9H0H5); assay: blockers of MgcRacGAP-driven Rac1 GTP hydrolysis – biochemical, ADP Hunter fluorescence, primary and confirmatory, confirmation (AID 624330); assay type: functional
# T5 sequence (Q9H0H5 whole entry): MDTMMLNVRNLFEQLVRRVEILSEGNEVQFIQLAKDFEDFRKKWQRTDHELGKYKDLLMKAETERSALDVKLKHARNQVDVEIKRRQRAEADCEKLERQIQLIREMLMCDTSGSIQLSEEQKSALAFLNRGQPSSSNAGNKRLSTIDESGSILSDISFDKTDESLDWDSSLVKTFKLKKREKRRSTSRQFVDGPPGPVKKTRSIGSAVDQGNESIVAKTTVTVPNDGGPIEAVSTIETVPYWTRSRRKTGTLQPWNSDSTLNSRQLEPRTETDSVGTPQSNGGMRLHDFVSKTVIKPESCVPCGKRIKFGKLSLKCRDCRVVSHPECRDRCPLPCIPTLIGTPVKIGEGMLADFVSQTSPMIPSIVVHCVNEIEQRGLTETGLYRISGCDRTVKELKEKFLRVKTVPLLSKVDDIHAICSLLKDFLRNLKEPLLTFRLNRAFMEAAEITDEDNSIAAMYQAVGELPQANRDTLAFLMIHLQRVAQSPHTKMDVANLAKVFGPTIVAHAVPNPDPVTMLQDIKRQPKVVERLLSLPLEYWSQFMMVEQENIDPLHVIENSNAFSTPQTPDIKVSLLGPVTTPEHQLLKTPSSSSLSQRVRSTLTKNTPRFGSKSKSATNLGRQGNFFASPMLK
# [26] = target: T6, Coagulation factor XII (Homo sapiens, UniProt P00748); assay: activated coagulation factor XII inhibitor potency, concentration-effect curve, cell-free (AID 716); assay type: functional
# T6 sequence (P00748 whole entry): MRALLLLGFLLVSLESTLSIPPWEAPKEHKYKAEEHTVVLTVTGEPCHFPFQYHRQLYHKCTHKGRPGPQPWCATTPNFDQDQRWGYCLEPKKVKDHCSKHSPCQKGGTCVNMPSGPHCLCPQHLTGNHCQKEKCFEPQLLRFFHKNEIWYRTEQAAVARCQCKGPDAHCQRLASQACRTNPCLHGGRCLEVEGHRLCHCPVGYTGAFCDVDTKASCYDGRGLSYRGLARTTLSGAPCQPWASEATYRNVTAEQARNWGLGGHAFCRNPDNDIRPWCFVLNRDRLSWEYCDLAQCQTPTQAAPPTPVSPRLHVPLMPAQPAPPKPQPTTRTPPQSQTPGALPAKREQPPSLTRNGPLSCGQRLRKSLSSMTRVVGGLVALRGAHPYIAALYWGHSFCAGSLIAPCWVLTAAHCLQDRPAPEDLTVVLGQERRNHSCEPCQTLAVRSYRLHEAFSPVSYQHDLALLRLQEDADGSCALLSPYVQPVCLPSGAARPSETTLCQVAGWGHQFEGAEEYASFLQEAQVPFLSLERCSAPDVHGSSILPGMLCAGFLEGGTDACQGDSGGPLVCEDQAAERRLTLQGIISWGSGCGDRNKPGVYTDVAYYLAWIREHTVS
# [27] = target: T7, Dual specificity protein phosphatase 3 (Homo sapiens, UniProt P51452); assay: SAR VHR1 absorbance Assay for In Vitro dose response studies. [Related pubchem assays (depositor defined):AID1654, AID1661, AID1878, AID1992, AID2004]
# T7 sequence (P51452 whole entry): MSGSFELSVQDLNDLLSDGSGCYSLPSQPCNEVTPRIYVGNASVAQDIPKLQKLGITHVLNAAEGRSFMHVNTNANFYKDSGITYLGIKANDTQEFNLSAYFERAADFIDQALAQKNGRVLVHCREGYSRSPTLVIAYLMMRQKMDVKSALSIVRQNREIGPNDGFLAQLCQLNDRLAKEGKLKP
# [28] = target: T7, Dual specificity protein phosphatase 3; assay: SAR VHR1 Fluorescent Assay for In Vitro dose response studies. [Related pubchem assays (depositor defined):AID1654, AID1661, AID1878, AID1992, AID2004, AID2070, AID2085]; assay type: functional
# [29] = target: T8, Tyrosine-protein phosphatase non-receptor type 7 (Homo sapiens, UniProt P35236); assay: redox-active compounds inhibiting HePTP phosphatase – biochemical, fluorescence, mechanism study (AID 2068); assay type: functional
# T8 sequence (P35236 whole entry): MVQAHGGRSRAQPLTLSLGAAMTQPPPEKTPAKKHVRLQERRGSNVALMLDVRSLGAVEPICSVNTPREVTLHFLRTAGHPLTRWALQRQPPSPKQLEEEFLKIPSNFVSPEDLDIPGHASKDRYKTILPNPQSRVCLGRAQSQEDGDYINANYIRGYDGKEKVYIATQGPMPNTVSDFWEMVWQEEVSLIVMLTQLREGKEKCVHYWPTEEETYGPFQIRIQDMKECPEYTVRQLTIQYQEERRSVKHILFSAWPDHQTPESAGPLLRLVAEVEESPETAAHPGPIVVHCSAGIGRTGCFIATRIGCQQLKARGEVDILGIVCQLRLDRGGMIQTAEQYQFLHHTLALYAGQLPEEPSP
# [30] = target: T7, Dual specificity protein phosphatase 3; assay: SAR VHR1 Fluorescent Assay for In Vitro dose response studies Set 2. [Related pubchem assays (depositor defined):AID1654, AID1661, AID1878]; assay type: functional
# [31] = target: Dual specificity protein phosphatase 6 (Rattus norvegicus, UniProt Q64346); assay type: functional;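 also: confirmatory in vitro dose-response testing of MKP-3 inhibition; recombinant His-tagged MKP-3 made in E. coli BL21 with OMFP substrate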
# Chain of Dual specificity protein phosphatase 6 (Q64346 whole entry): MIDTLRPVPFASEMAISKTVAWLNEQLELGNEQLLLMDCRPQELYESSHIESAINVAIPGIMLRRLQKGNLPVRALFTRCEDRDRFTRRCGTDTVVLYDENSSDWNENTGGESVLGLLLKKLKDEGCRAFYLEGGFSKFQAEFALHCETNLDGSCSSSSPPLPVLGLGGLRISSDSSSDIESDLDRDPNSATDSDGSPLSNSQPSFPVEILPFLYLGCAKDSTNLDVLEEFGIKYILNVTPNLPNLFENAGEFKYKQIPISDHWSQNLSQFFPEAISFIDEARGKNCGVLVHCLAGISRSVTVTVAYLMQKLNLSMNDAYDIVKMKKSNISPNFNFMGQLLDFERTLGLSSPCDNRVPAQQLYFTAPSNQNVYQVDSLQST
smiles,measurement,setting,value
CCCCNS(=O)(=O)c1ccc(NC(=O)C(Sc2ccccc2)c2ccccc2)cc1 (stereo unspecified),EC50,[1],> 120 µM (not active)
same,EC50,[2],> 120 µM (not active)
same,EC50,[3],13.9 µM (active)
same,IC50,[4],1.12 µM (active)
same,EC50,[5],14 µM (active)
same,EC50,[6],12.2 µM (active)
O=C(CSc1nc2ccccc2c(=O)n1-c1ccc(F)cc1F)Nc1ccc2c(c1)CCC2,CC50,[7],> 16.7 µM (active)
same,CC50,[8],> 200 µM (active)
same,CC50,[9],> 80 µM (active)
same,IC50,[10],45 µM (active)
same,IC50,[11],173 µM (active)
same,IC50,[12],11.8 µM (active)
O=c1c2cc(F)ccc2sn1-c1ccccc1,IC50,[13],> 100 µM (inactive)
same,IC50,[14],1.03 µM (active)
same,IC50,[15],88.3 µM (active)
same,IC50,[16],0.792 µM (active)
same,IC50,[17],8.82 µM (active)
same,IC50,[18],> 100 µM (inactive)
same,IC50,[19],5.8 µM (active)
same,IC50,[20],23 µM (inactive)
same,EC50,[21],> 104 µM (inactive)
same,IC50,[22],4.59 µM (active)
same,IC50,[23],23.7 µM (inactive)
same,CC50,[24],100 µM (active)
same,IC50,[25],35.5 µM (active)
CC(C)CC(c1nnnn1Cc1ccco1)N1CCN(C2CCCC2)CC1 (stereo unspecified),IC50,[26],> 50 µM (inactive)
CN(C)S(=O)(=O)c1cc(C(=O)NC2CCSc3ccccc32)ccc1Cl (stereo unspecified),IC50,[27],> 100 µM (inactive)
same,IC50,[28],> 100 µM (inactive)
same,IC50,[29],> 100 µM (inactive)
same,IC50,[30],> 100 µM (inactive)
same,IC50,[31],> 100 µM (inactive)
